Results reported in PubChem BioAssay AID1918943 (Molecular Pharmacology Branch, DTP, NCI, 2023).

Test system: 855422-203-R-J1-PDC complex spheroid viability
Experiment: Anticancer human tumor 855422-203-R-J1-PDC patient-derived bladder carcinoma cell line growth inhibition
Conditions: for IC50: curve of first compound; for viability, T/C: stronger effect = lower value; active means viability on the fitted dose curve at most 10% of control; inactive means the rest
From the text: Multicellular complex tumor spheroid response to LSD1 Inhibitor Iadademstat in combination with a variety of drugs and investigational agents in selected tumor cell lines
The current study was undertaken to assess response to LSD1 inhibitors in combination with standard-of-care drugs and investigational agents in solid tumor complex spheroid models as well as in the K-562 leukemia. Complex spheroids include a stromal component modeled by human endothelial cells (HUVEC) and fibroblasts modeled by human mesenchymal stem cells (MSCs). The concentration ranges selected for each drug and investigational agent were based upon clinically achievable concentrations if the clinical Cmax of the agent was known.
Compounds. The drugs and investigational agents used in this study are listed on Table 1. All of the agents used, including staurosporine (NSC755774) and gemcitabine (NSC613327), were obtained from the Developmental Therapeutics Program, NCI. FDA-approved anticancer drugs are available from the NCI at http://dtp.nci.nih.gov/branches/dscb/oncology_drugset_explanation.html. Drugs and investigational agents were >95% pure by proton nuclear magnetic resonance (NMR) and liquid chromatography/mass spectrometry (LC/MS). Stock solutions were prepared at 400x in DMSO, stored at -70 degrees C, and diluted in fresh medium prior to their use. The final concentration of DMSO in cell culture wells never exceeded 0.25% (v/v). The FDA-approved anticancer drug set is available from the Developmental Therapeutics Program at https://dtp.cancer.gov/organization/dscb/obtaining/available_plates.htm. All drugs and investigational agents were tested over a range starting from a high concentration at or near the clinical Cmax and decreasing in half-log increments. If the clinical Cmax for an agent had not been determined, the highest concentration tested was 10 microM.
Cell Lines. The patient-derived cancer cell (PDC) lines: 292921-168-R-J2-PDC, K24384-001-R-PDC, and 521955-158-R2-J5-PDC pancreatic carcinomas, 556581-035-R-J1 ovarian carcinoma, 324938-238-R-J1-PDC, 855422-203-R-J1-PDC and 883617-216-R-J1-PDC urothelial bladder carcinomas, 743489-274-T-PDC renal cell carcinoma, 138582-R-J1 Merkel cell tumor, K60290-347-R-J1 and K57222-313-R-J1-PDC glioblastomas, 653999-131-R-J2-PDC, LG0703-F948-PDC, and 349418-098-R-PDC non-small cell lung carcinomas, 885512-296-R-J2-PDC, 171881-019-R-J1-PDC breast carcinomas and 186277-243-T-J2-PDC and 233499-124-R-J2-PDC colon carcinomas were obtained from the NCI Patient-Derived Models Repository (PDMR, https://pdmr.cancer.gov). The established cell lines NCI/ADR-RES (RRID:CVCL_14520 and OVCAR-5 (RRID:CVCL_1628) ovarian carcinomas, 786-O (RRID:CVCL_1051) and A498 (RRID:CVCL_A498) renal cell carcinoma, NCI-H211 (ATCC, cat. CRL-5824; RRID:CVCL_1529), NCI-H196 (ATCC, cat. CRL-5823, RRID:CVCL_1509), SW 1271 (ATCC, cat. CRL-2177, RRID:CVCL_1716) and NCI-H1876 (ATCC, cat. CRL-5902, RRID:CVCL_1503) small cell lung carcinomas, MDA-MB-231 (RRID:CVCL_0062) and MDA-MB-468 (RRID:CVCL_0419)breast carcinomas (10-12). Pooled donor human umbilical vein endothelial cells (HUVEC, Lonza, cat. CC-2519) and human mesenchymal stem cells (hMSC, Lonza, cat. PT-2501) were purchased from Lonza (Walkersville, MD).
Cell Culture. All cells were maintained in an incubator at 37 degrees C and 5% CO2 with 95% humidity. The PDC lines were cultured according to standard operating procedures established by the NCI PDMR (https://pdmr.cancer.gov). Briefly all PDCs were thawed and cultured in Matrigel-coated flasks prepared with a working solution of 1X Ham's F-12 nutrient mix, without supplementation (Invitrogen, Waltham, MA, cat. 11765054), 100 U/mL penicillin-streptomycin (Invitrogen, cat. 15140122), and 2.5% Matrigel (Corning Inc., Corning, NY, cat. 354248) for the first three passages. […]

[1] = second compound 0.1 µM, first compound 0.00316 µM
[2] = second compound 0.1 µM, first compound 0.01 µM
[3] = second compound 0.1 µM, first compound 0.0316 µM
[4] = second compound 0.1 µM, first compound 0.1 µM
[5] = second compound 0.316 µM, first compound 0.00316 µM
[6] = second compound 0.316 µM, first compound 0.01 µM
[7] = second compound 0.316 µM, first compound 0.0316 µM
[8] = second compound 0.316 µM, first compound 0.1 µM
[9] = second compound 1 µM, first compound 0.00316 µM
[10] = second compound 1 µM, first compound 0.01 µM
[11] = second compound 1 µM, first compound 0.0316 µM
[12] = second compound 1 µM, first compound 0.1 µM
[13] = second compound 3.16 µM, first compound 0.00316 µM
[14] = second compound 3.16 µM, first compound 0.01 µM
[15] = second compound 3.16 µM, first compound 0.0316 µM
[16] = second compound 3.16 µM, first compound 0.1 µM
[17] = second compound 10 µM, first compound 0.00316 µM
[18] = second compound 10 µM, first compound 0.01 µM
[19] = second compound 10 µM, first compound 0.0316 µM
[20] = second compound 10 µM, first compound 0.1 µM
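Further: drug exposure lasted 7 days starting on day 3 after seeding.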
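Wherever viability, T/C is given: luminescence viability as percent of DMSO vehicle wells = 100%.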

CC[C@@]1(O)C(=O)OCc2c1cc1n(c2=O)Cc2cc3c(CN(C)C)c(O)ccc3nc2-1 + NC1CC1c1ccc(-c2cccc(O)c2)cc1
0.00859 µM: IC50 (second compound 0.1 µM)
0.00635 µM: IC50 (second compound 10 µM)
0.00785 µM: IC50 (second compound 1 µM)
0.00685 µM: IC50 (second compound 3.16 µM)
inactive: viability, T/C (second compound 0.1 µM, first compound 0.000316 µM) 97.8% | viability, T/C (second compound 0.1 µM, first compound 0.001 µM) 102% | viability, T/C [1] 98.1% | viability, T/C [2] 42.7% | viability, T/C [3] 21.8% | viability, T/C [4] 19.4% | viability, T/C (second compound 0.316 µM, first compound 0.000316 µM) 98.9% | viability, T/C (second compound 0.316 µM, first compound 0.001 µM) 102% | viability, T/C [5] 92.8% | viability, T/C [6] 39.1% | viability, T/C [7] 22.8% | viability, T/C [8] 19.4% | viability, T/C (second compound 1 µM, first compound 0.000316 µM) 90.5% | viability, T/C (second compound 1 µM, first compound 0.001 µM) 94.6% | viability, T/C [9] 84.8% | viability, T/C [10] 40.5% | viability, T/C [11] 22.8% | viability, T/C [12] 18.8% | viability, T/C (second compound 3.16 µM, first compound 0.000316 µM) 85.7% | viability, T/C (second compound 3.16 µM, first compound 0.001 µM) 90.3% | viability, T/C [13] 87.2% | viability, T/C [14] 31.8% | viability, T/C [15] 20.9% | viability, T/C [16] 18.6% | viability, T/C (second compound 10 µM, first compound 0.000316 µM) 81.5% | viability, T/C (second compound 10 µM, first compound 0.001 µM) 97.3% | viability, T/C [17] 82.2% | viability, T/C [18] 28.9% | viability, T/C [19] 21.5% | viability, T/C [20] 16.3%
0.00794 µM: IC50 (second compound 0.316 µM)

COc1cc(C2c3cc4c(cc3C(OC3OC5COC(C)OC5C(O)C3O)C3COC(=O)C23)OCO4)cc(OC)c1O (stereo not given) + NC1CC1c1ccc(-c2cccc(O)c2)cc1
0.148 µM: IC50 (second compound 0.1 µM)
0.129 µM: IC50 (second compound 1 µM)
0.0921 µM: IC50 (second compound 10 µM)
0.119 µM: IC50 (second compound 3.16 µM)
inactive: viability, T/C (second compound 0.1 µM, first compound 0.00949 µM) 96.3% | viability, T/C (second compound 0.1 µM, first compound 0.03 µM) 98.3% | viability, T/C (second compound 0.1 µM, first compound 0.0949 µM) 59.5% | viability, T/C (second compound 0.1 µM, first compound 0.3 µM) 31.1% | viability, T/C (second compound 0.1 µM, first compound 0.949 µM) 19.7% | viability, T/C (second compound 0.1 µM, first compound 3 µM) 10.7% | viability, T/C (second compound 0.316 µM, first compound 0.00949 µM) 101% | viability, T/C (second compound 0.316 µM, first compound 0.03 µM) 102% | viability, T/C (second compound 0.316 µM, first compound 0.0949 µM) 60.9% | viability, T/C (second compound 0.316 µM, first compound 0.3 µM) 32.6% | viability, T/C (second compound 0.316 µM, first compound 0.949 µM) 19.7% | viability, T/C (second compound 0.316 µM, first compound 3 µM) 11.6% | viability, T/C (second compound 1 µM, first compound 0.00949 µM) 91.6% | viability, T/C (second compound 1 µM, first compound 0.03 µM) 95.8% | viability, T/C (second compound 1 µM, first compound 0.0949 µM) 55.4% | viability, T/C (second compound 1 µM, first compound 0.3 µM) 28.9% | viability, T/C (second compound 1 µM, first compound 0.949 µM) 17.6% | viability, T/C (second compound 1 µM, first compound 3 µM) 10.9% | viability, T/C (second compound 3.16 µM, first compound 0.00949 µM) 100% | viability, T/C (second compound 3.16 µM, first compound 0.03 µM) 96.9% | viability, T/C (second compound 3.16 µM, first compound 0.0949 µM) 52.3% | viability, T/C (second compound 3.16 µM, first compound 0.3 µM) 27.9% | viability, T/C (second compound 3.16 µM, first compound 0.949 µM) 16.2% | viability, T/C (second compound 3.16 µM, first compound 3 µM) 8.34% | viability, T/C (second compound 10 µM, first compound 0.00949 µM) 99.5% | viability, T/C (second compound 10 µM, first compound 0.03 µM) 97% | viability, T/C (second compound 10 µM, first compound 0.0949 µM) 46.5% | viability, T/C (second compound 10 µM, first compound 0.3 µM) 26.6% | viability, T/C (second compound 10 µM, first compound 0.949 µM) 18.4% | viability, T/C (second compound 10 µM, first compound 3 µM) 9.12%
0.155 µM: IC50 (second compound 0.316 µM)

Nc1ncn(C2CC(O)C(CO)O2)c(=O)n1 (stereo not given) + NC1CC1c1ccc(-c2cccc(O)c2)cc1
> 1 µM: IC50 (second compound 0.1 µM) | IC50 (second compound 0.316 µM) | IC50 (second compound 1 µM) | IC50 (second compound 3.16 µM) | IC50 (second compound 10 µM)
inactive: viability, T/C [1] 104% | viability, T/C [2] 98.2% | viability, T/C [3] 99.7% | viability, T/C [4] 106% | viability, T/C (second compound 0.1 µM, first compound 0.316 µM) 93.5% | viability, T/C (second compound 0.1 µM, first compound 1 µM) 92.4% | viability, T/C [5] 104% | viability, T/C [6] 95% | viability, T/C [7] 96.5% | viability, T/C [8] 91.6% | viability, T/C (second compound 0.316 µM, first compound 0.316 µM) 90.3% | viability, T/C (second compound 0.316 µM, first compound 1 µM) 88.7% | viability, T/C [9] 84.9% | viability, T/C [10] 88.6% | viability, T/C [11] 89.2% | viability, T/C [12] 93.5% | viability, T/C (second compound 1 µM, first compound 0.316 µM) 91.5% | viability, T/C (second compound 1 µM, first compound 1 µM) 86.7% | viability, T/C [13] 91.6% | viability, T/C [14] 83.3% | viability, T/C [15] 88% | viability, T/C [16] 86.6% | viability, T/C (second compound 3.16 µM, first compound 0.316 µM) 89.5% | viability, T/C (second compound 3.16 µM, first compound 1 µM) 84.2% | viability, T/C [17] 74.7% | viability, T/C [18] 76.8% | viability, T/C [19] 84.2% | viability, T/C [20] 82% | viability, T/C (second compound 10 µM, first compound 0.316 µM) 94.8% | viability, T/C (second compound 10 µM, first compound 1 µM) 85.2%
